How the values were obtained:
[1] = biological target: T1, SRD5A3 (Homo sapiens, UniProt Q9H8P0); experiment: Western blot assay in HepG2 cells: SRD5A3; format: cell-based; conditions: different concentrations at 24 h (FIG. 10)
T1 construct: The downregulation of SRD5A3 and GSPT1 (eRF3a) proteins in PC-3 and HepG2 cells by C59; endogenous in cells; host or cells: 22Rv1, PC-3, HepG2
T1 sequence (Q9H8P0 1-318): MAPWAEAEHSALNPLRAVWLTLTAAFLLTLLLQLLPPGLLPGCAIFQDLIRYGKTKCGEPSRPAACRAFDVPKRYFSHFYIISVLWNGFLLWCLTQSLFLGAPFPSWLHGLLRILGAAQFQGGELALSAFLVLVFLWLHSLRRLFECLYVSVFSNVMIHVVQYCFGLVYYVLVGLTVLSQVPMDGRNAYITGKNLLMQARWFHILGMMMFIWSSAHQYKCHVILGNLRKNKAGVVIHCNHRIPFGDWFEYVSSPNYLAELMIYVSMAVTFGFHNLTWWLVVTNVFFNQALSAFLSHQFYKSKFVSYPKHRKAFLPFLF
Excerpt: (§1) Example 84: Western Blot Assay of Compound C59 in 22Rv1, PC-3, and HepG2 Cells
(§2) (1) Materials: 22Rv1, PC-3, and HepG2 cell, anti-SRD5A1 antibody (ab167606), anti-SRD5A2 antibody (ab124877), anti-SRD5A3 antibody (PA5-107029), anti-androgen receptor (AR) antibody (CST, No. 5153), anti-GSPT1 antibody (Abcam, ab234433), anti-GADPH antibody (CST, No. 5174), anti-c-Myc antibody (CST, No. 8583), anti-α-tublin antibody (CST, No. 2125), anti-rabbit IgG, HRP-linked antibody (CST, No. 7074), electrophoresis device and membrane transfer device (LIUYI, BEIJING; DYCZ-24DN)
(§3) Cell seeding: 22Rv1 (Cell Bank of the Chinese Academy of Sciences, TCHu100), PC-3 (Cell Bank of the Chinese Academy of Sciences, SCSP-532) and HepG2 cells (Cell Bank of the Chinese Academy of Sciences, TCHu72) were subcultured and trypsinized to prepare 6×10^5 cells/mL suspensions, seeded on 6-well plates (3 mL/well), and cultured overnight in a cell incubator at 5% CO2 and 37° C. […]
(§4) Protein quantification: The protein was quantified using a BCA protein quantification kit. […]
(§5) Western immunoblot assay (or Western blot, WB): SDS-PAGE gel at a proper concentration was prepared according to the molecular weight of the target protein: for example, the concentration of the separation gel was 8% and the concentration of the stacking gel was 5%. The loading volume was adjusted according to the protein quantification results. […]

[2] = tested on: ARV7; experiment: Western blot assay in 22Rv1 cells: ARV7; format: cell-based, human; conditions: different concentrations at 24 h, and 3 nM at different time points (FIGS. 7 and 8)
Excerpt: as §1, §2, §3, §4, §5

[3] = tested on: MDA-MB-231 cells; experiment: Anti-proliferative toxicity of C63 in tumor cell lines (CCK8): MDA-MB-231; format: cell-based; conditions: Homo sapiens, 72 h, 3 days, read-out: Inhibition rate
Description: (§6) Example 83: Detection of Anti-Proliferative Toxicity of C63 in Some Tumor Cell Lines
MDA-MB-231 cells (purchased from the Cell Bank of the Chinese Academy of Sciences, Cat. No. TCHu227) were subcultured in a culture medium (L15 medium+1% penicillin-streptomycin dual-antibiotic solution+10% fetal bovine serum) in an incubator at 37° C.
MDA-MB-231 cells were seeded at 5000 cells/well (90 μL) on a 96-well plate and cultured for 24 h.
(§7) 10 mM compound stock solutions were prepared in DMSO.
(§8) The compound stock solution was diluted with DMSO to give DMSO solutions 1-9 at concentrations of 0 μM, 2500 μM, 500 μM, 100 μM, 20 μM, 4 μM, 0.8 μM, 0.16 μM, and 0.032 μM.
(§9) 2 μL of each of solutions 1-9 was added to 98 μL of the medium to give mixed solutions 11-19 of the compound and the medium.
(§10) 10 μL of each of solutions 11-19 was added to the above cell seed solution to give a total volume of 100 μL (90 μL+10 μL).
(§11) The concentrations of the compound in the wells were 0 μM, 5.0 μM, 1.0 μM, 0.2 μM, 0.04 μM, 0.008 μM, 0.0016 μM, 0.00032 μM, and 0.000064 μM. All concentrations were in triplicate.
(§12) After the above-treated cells were cultured for 3 days, 10 μL of the CCK8 solution (DOJINDO, Cat. No. PF725) was added to each well. The plate was incubated in an incubator at 37° C. for 1-4 h and then detected on a microplate reader for the reading at 450 nm.

[4] = tested on: PC-3 cells; experiment: Anti-proliferative toxicity of C63 in tumor cell lines (CCK8): PC-3; format: cell-based; conditions: Homo sapiens, 72 h, 3 days, read-out: Inhibition rate
Description: as §6
PC-3 cells (purchased from the Cell Bank of the Chinese Academy of Sciences, Cat. No. SCSP-532) were subcultured in a culture medium (F12K medium+1% penicillin-streptomycin dual-antibiotic solution+10% fetal bovine serum) in an incubator at […] and 37° C.
PC-3 cells were seeded at 4000 cells/well (90 μL) on a 96-well plate and cultured for 24 h.
as §7, §8, §9, §10, §11, §12

Question: Which results are given for `C[C@]12C=CC(=O)N[C@@H]1CC[C@@H]1[C@@H]2CC[C@]2(C)[C@@H](C(=O)Nc3cccc(N[C@@H]4CCC[C@@H](Nc5cccc6c5C(=O)N(C5CCC(=O)NC5=O)C6=O)C4)c3)CC[C@@H]12` (stereo partly drawn) [C59, N-(3-(N—(N-(4-(2-(3-(2,6-dioxopiperidine))-isoindole-1,3-dione))-1R,3R-cyclohexanediamine))phenyl)-3-oxo-4-aza-5α-androst-1-ene-17β-carboxamide]?
Answer: downregulation of SRD5A3 protein (Western blot) [1]: downregulation; downregulation of ARV7 protein (Western blot) [2]: downregulation

Question: With `C[C@]12C=CC(=O)N[C@@H]1CC[C@@H]1[C@@H]2CC[C@]2(C)[C@@H](C(=O)Nc3cccc(N[C@@H]4CCC[C@@H](Nc5cccc6c5C(=O)N([C@H]5CCC(=O)NC5=O)C6=O)C4)c3)CC[C@@H]12` [C63, N-(3-(N—(N-(4-(2-(3S-(2,6-dioxopiperidine))-isoindole-1,3-dione))-1R,3R-cyclohexanediamine))phenyl)-3-oxo-4-aza-5α-androst-1-ene-17β-carboxamide] as the compound, how does the inhibition at 64 pM ([3]; 0.000064 μM) read?
Answer: 27.6%

Question: And the inhibition at 0.00032 µM ([3]; 0.000320 μM)?
Answer: 62.8%

Question: What about the inhibition at 0.0016 µM ([3]; 0.001600 μM) of the same compound?
Answer: 75.6%

Question: And the inhibition at 0.008 µM ([3]; 0.008000 μM)?
Answer: 79.3%

Question: And the inhibition at 0.04 µM ([3]; 0.040000 μM)?
Answer: 80.1%

Question: And the inhibition at 0.2 µM ([3]; 0.200000 μM)?
Answer: 79.9%

Question: What about the inhibition at 1 µM ([3]; 1.000000 μM) of the same compound?
Answer: 78.8%

Question: And the inhibition at 5 µM ([3]; 5.000000 μM)?
Answer: 80.4%

Question: What about the inhibition at 64 pM ([4]; 0.000064 μM) of the same compound?
Answer: 45.1%

Question: And the inhibition at 0.00032 µM ([4]; 0.000320 μM)?
Answer: 65.1%

Question: And the inhibition at 0.0016 µM ([4]; 0.001600 μM)?
Answer: 78.8%

Question: And the inhibition at 0.008 µM ([4]; 0.008000 μM)?
Answer: 82.8%

Question: What about the inhibition at 0.04 µM ([4]; 0.040000 μM) of the same compound?
Answer: 80.2%

Question: And the inhibition at 0.2 µM ([4]; 0.200000 μM)?
Answer: 78.4%

Question: What about the inhibition at 1 µM ([4]; 1.000000 μM) of the same compound?
Answer: 78.4%

Question: And the inhibition at 5 µM ([4]; 5.000000 μM)?
Answer: 82.1%

Reference: patent publication US20250213701A1, “MEDICAMENT FOR TREATING HUMAN TUMOR BASED ON ERF3A-TARGETING PROTEOLYSIS MECHANISM” (SUZHOU DEGEN BIO-MEDICAL CO., LTD., priority 2022, published 2025)
